# In patent US20260215425A1, “NITRIFICATION INHIBITORS” (The University of Melbourne, priority 2022, published 2026):
# System: soils B-E
# Assay: soil incubation, N2O production in soils B-E
# Protocol: Soil incubations were performed in three replicates. Each sample consisted of 6 g of sieved soil (2 mm). The soil was air-dried after collection and pre-incubated prior to the experiment for seven days at 50% water holding capacity (WHC). The soil was transferred to a gas chromatography vial (22 mL volume, clear glass, Macherey-Nagel, Germany) and compacted densely to allow 5.5-6.2 cm headspace. The soil in the vials was incubated for a total of 21 days at a constant temperature of 21° C. with an open lid to ensure gas circulation. The control incubations contained ‘untreated’ soil (deionized H2O only) and ‘fertiliser only’ soil ((NH4)2SO4; 50 mg kg^−1 soil) and accompanied each measurement. (NH4)2SO4 was applied as an aqueous solution ([…]) and introduced on the soil surface to mimic field conditions. Three inhibitor solutions were prepared from DMP and 4-MPT at concentrations of 0.5 mol %, 2.5 mol % and 5 mol % of applied fertiliser-N and applied on the soil surface. The soils reached 60% WHC after the treatments had been applied and were kept at that moisture level by periodically adding deionized water to compensate for evaporation losses. At the day of measurement (day 1, 3, 5, 7, 14 and 21 after fertilization) the vials were closed gas-tight with a rubber septum and aluminium lid and opened again after each measurement. The N2O emission was analysed using a gas chromatograph equipped with an electron capture detector and flame ionization detector (GC-ECD/FID; Clarus 580, Perkin Elmer). A linear regression slope was used to calculate N2O—N production rates, F, according to eqn. 5:
# where ΔC/Δt represents the change of the N2O concentration over the time interval t in ppbv, V represents the headspace volume in L, M represents the molar mass of N in N2O, m represents the amount of soil in g dry weight, Vm represents the molar volume of ideal gases (22.414 L mol^−1) at 0° C. and 101.325 kPa, corrected for the gas sampler using T0 (273.15 K) and Ta (air temperature in K).
structure (smiles),measurement,setting,value
"C#CCn1cc(C)nn1 [Compound 4-MPT, 4-Methyl-1-(prop-2-yn-1yl)-1H-1,2,3-triazole]",N2O production,"Soil B, 0.5 mol %, Day 1",0.058 ± 0.004 μg g^−1 soil h^−1
same,N2O production,"Soil B, 0.5 mol %, Day 3",0.009 ± 0.009 μg g^−1 soil h^−1
same,N2O production,"Soil B, 0.5 mol %, Day 5",0.000 ± 0.000 μg g^−1 soil h^−1
same,N2O production,"Soil B, 0.5 mol %, Day 7",−0.013 ± 0.013 μg g^−1 soil h^−1
same,N2O production,"Soil B, 0.5 mol %, Day 14",0.008 ± 0.008 μg g^−1 soil h^−1
same,N2O production,"Soil B, 0.5 mol %, Day 21",0.011 ± 0.011 μg g^−1 soil h^−1
same,N2O production,"Soil B, 2.5 mol %, Day 1",0.007 ± 0.007 μg g^−1 soil h^−1
same,N2O production,"Soil B, 2.5 mol %, Day 3",0.000 ± 0.000 μg g^−1 soil h^−1
same,N2O production,"Soil B, 2.5 mol %, Day 5",−0.007 ± 0.007 μg g^−1 soil h^−1
same,N2O production,"Soil B, 2.5 mol %, Day 7",−0.019 ± 0.019 μg g^−1 soil h^−1
same,N2O production,"Soil B, 2.5 mol %, Day 14",0.000 ± 0.000 μg g^−1 soil h^−1
same,N2O production,"Soil B, 2.5 mol %, Day 21",0.000 ± 0.000 μg g^−1 soil h^−1
same,N2O production,"Soil B, 5 mol %, Day 1",0.000 ± 0.000 μg g^−1 soil h^−1
same,N2O production,"Soil B, 5 mol %, Day 3",0.000 ± 0.000 μg g^−1 soil h^−1
same,N2O production,"Soil B, 5 mol %, Day 5",0.000 ± 0.000 μg g^−1 soil h^−1
same,N2O production,"Soil B, 5 mol %, Day 7",−0.048 ± 0.026 μg g^−1 soil h^−1
same,N2O production,"Soil B, 5 mol %, Day 14",0.000 ± 0.000 μg g^−1 soil h^−1
same,N2O production,"Soil B, 5 mol %, Day 21",0.000 ± 0.000 μg g^−1 soil h^−1
same,N2O production,"Soil C, 0.5 mol %, Day 1",0.119 ± 0.011 μg g^−1 soil h^−1
same,N2O production,"Soil C, 0.5 mol %, Day 3",0.062 ± 0.001 μg g^−1 soil h^−1
same,N2O production,"Soil C, 0.5 mol %, Day 5",0.059 ± 0.007 μg g^−1 soil h^−1
same,N2O production,"Soil C, 0.5 mol %, Day 7",0.054 ± 0.006 μg g^−1 soil h^−1
same,N2O production,"Soil C, 0.5 mol %, Day 14",0.119 ± 0.010 μg g^−1 soil h^−1
same,N2O production,"Soil C, 0.5 mol %, Day 21",0.107 ± 0.008 μg g^−1 soil h^−1
same,N2O production,"Soil C, 2.5 mol %, Day 1",0.042 ± 0.04 μg g^−1 soil h^−1
same,N2O production,"Soil C, 2.5 mol %, Day 3",0.000 ± 0.000 μg g^−1 soil h^−1
same,N2O production,"Soil C, 2.5 mol %, Day 5",0.011 ± 0.011 μg g^−1 soil h^−1
same,N2O production,"Soil C, 2.5 mol %, Day 7",0.031 ± 0.003 μg g^−1 soil h^−1
same,N2O production,"Soil C, 2.5 mol %, Day 14",0.012 ± 0.008 μg g^−1 soil h^−1
same,N2O production,"Soil C, 2.5 mol %, Day 21",0.019 ± 0.010 μg g^−1 soil h^−1
same,N2O production,"Soil C, 5 mol %, Day 1",0.017 ± 0.017 μg g^−1 soil h^−1
same,N2O production,"Soil C, 5 mol %, Day 3",0.000 ± 0.000 μg g^−1 soil h^−1
same,N2O production,"Soil C, 5 mol %, Day 5",0.000 ± 0.000 μg g^−1 soil h^−1
same,N2O production,"Soil C, 5 mol %, Day 7",0.024 ± 0.013 μg g^−1 soil h^−1
same,N2O production,"Soil C, 5 mol %, Day 14",0.023 ± 0.007 μg g^−1 soil h^−1
same,N2O production,"Soil C, 5 mol %, Day 21",0.000 ± 0.000 μg g^−1 soil h^−1
same,N2O production,"Soil D, 0.5 mol %, Day 1",0.029 ± 0.029 μg g^−1 soil h^−1
same,N2O production,"Soil D, 0.5 mol %, Day 3",0.058 ± 0.009 μg g^−1 soil h^−1
same,N2O production,"Soil D, 0.5 mol %, Day 5",0.004 ± 0.004 μg g^−1 soil h^−1
same,N2O production,"Soil D, 0.5 mol %, Day 7",0.037 ± 0.021 μg g^−1 soil h^−1
same,N2O production,"Soil D, 0.5 mol %, Day 14",0.037 ± 0.005 μg g^−1 soil h^−1
same,N2O production,"Soil D, 0.5 mol %, Day 21",0.045 ± 0.014 μg g^−1 soil h^−1
same,N2O production,"Soil D, 2.5 mol %, Day 1",0.015 ± 0.010 μg g^−1 soil h^−1
same,N2O production,"Soil D, 2.5 mol %, Day 3",0.020 ± 0.010 μg g^−1 soil h^−1
same,N2O production,"Soil D, 2.5 mol %, Day 5",0.000 ± 0.000 μg g^−1 soil h^−1
same,N2O production,"Soil D, 2.5 mol %, Day 7",0.037 ± 0.018 μg g^−1 soil h^−1
same,N2O production,"Soil D, 2.5 mol %, Day 14",0.000 ± 0.000 μg g^−1 soil h^−1
same,N2O production,"Soil D, 2.5 mol %, Day 21",0.000 ± 0.000 μg g^−1 soil h^−1
same,N2O production,"Soil D, 5 mol %, Day 1",0.000 ± 0.000 μg g^−1 soil h^−1
same,N2O production,"Soil D, 5 mol %, Day 3",0.027 ± 0.013 μg g^−1 soil h^−1
same,N2O production,"Soil D, 5 mol %, Day 5",0.000 ± 0.000 μg g^−1 soil h^−1
same,N2O production,"Soil D, 5 mol %, Day 7",0.020 ± 0.011 μg g^−1 soil h^−1
same,N2O production,"Soil D, 5 mol %, Day 14",0.000 ± 0.000 μg g^−1 soil h^−1
same,N2O production,"Soil D, 5 mol %, Day 21",0.000 ± 0.000 μg g^−1 soil h^−1
same,N2O production,"Soil E, 0.5 mol %, Day 1",0.007 ± 0.007 μg g^−1 soil h^−1
same,N2O production,"Soil E, 0.5 mol %, Day 3",0.011 ± 0.011 μg g^−1 soil h^−1
same,N2O production,"Soil E, 0.5 mol %, Day 5",0.000 ± 0.000 μg g^−1 soil h^−1
same,N2O production,"Soil E, 0.5 mol %, Day 7",0.000 ± 0.000 μg g^−1 soil h^−1
same,N2O production,"Soil E, 0.5 mol %, Day 14",0.000 ± 0.000 μg g^−1 soil h^−1
same,N2O production,"Soil E, 0.5 mol %, Day 21",0.000 ± 0.000 μg g^−1 soil h^−1
same,N2O production,"Soil E, 2.5 mol %, Day 1",0.008 ± 0.008 μg g^−1 soil h^−1
same,N2O production,"Soil E, 2.5 mol %, Day 3",0.008 ± 0.008 μg g^−1 soil h^−1
same,N2O production,"Soil E, 2.5 mol %, Day 5",0.000 ± 0.000 μg g^−1 soil h^−1
same,N2O production,"Soil E, 2.5 mol %, Day 7",0.000 ± 0.000 μg g^−1 soil h^−1
same,N2O production,"Soil E, 2.5 mol %, Day 14",0.000 ± 0.000 μg g^−1 soil h^−1
same,N2O production,"Soil E, 2.5 mol %, Day 21",0.000 ± 0.000 μg g^−1 soil h^−1
same,N2O production,"Soil E, 5 mol %, Day 1",0.012 ± 0.012 μg g^−1 soil h^−1
same,N2O production,"Soil E, 5 mol %, Day 3",0.000 ± 0.000 μg g^−1 soil h^−1
same,N2O production,"Soil E, 5 mol %, Day 5",0.000 ± 0.000 μg g^−1 soil h^−1
same,N2O production,"Soil E, 5 mol %, Day 7",0.000 ± 0.000 μg g^−1 soil h^−1
same,N2O production,"Soil E, 5 mol %, Day 14",0.000 ± 0.000 μg g^−1 soil h^−1
same,N2O production,"Soil E, 5 mol %, Day 21",0.000 ± 0.000 μg g^−1 soil h^−1
same,N2O production rate,"soil B, 0.5 mol % (lowest application rate), day 1",0.06 ng g^−1 soil h^−1
same,amount of N2O,"soil B, other than day 1 at the lowest application rate, over the duration of the experiment",below the detection limit
same,N2O relative to the amount released from the uninhibited soil,"soil C, 0.5 mol %",25%
same,N2O produced,"soil C, 0.5 mol %, across the duration of the incubation",about 0.12 ng h^1
same,production of N2O,"soil C, higher application rates (2.5 and 5 mol %)",nearly completely suppressed
same,slowing down of N2O production,"soil D, 0.5 mol %",60%
same,N2O production rate,"soil D, two higher application rates (2.5 and 5 mol %), from the start of the experiment",practically zero
same,N2O production beyond day 5,"soil E, all 4-MPT treatments (0.5, 2.5, 5 mol %)",no N2O production was detected
